Results as given in patent publication US9572831B2, “Composition and method for sulfated non-anticoagulant low molecular weight heparins in cancer and tumor metastasis” (priority 2013, dated 2017).

Key:
MPanc96-luc cells = assay: CAM cancer implant model, MPanc96; format: in vivo, chick embryo; settings: 1.0 ug/CAM
Description: The CAM cancer implant model was used in conjunction with the present invention to study the effect of heparin derivatives (S-NACH versus tinzaparin) along with gemcitabine at 1.0 μg/CAM on tumor angiogenesis and tumor growth. MPanc96-luc cells in exponential growth phase were harvested as described above. One×10^6 cells in 30 μl of medium were mixed with an equal volume of Matrigel and implanted in the chick Chorioallantoic membrane (CAM) model of 7-day old chick eggs. The effect of these treatments was determined after 8 days of implantation. Results are presented as a mean tumor weight (g) per treatment group and tumor hemoglobin (mg/dl)±SEM, n=10 per group. For the Matrigel portions of the models, tumor angiogenesis is evaluated with tumor weight analysis and Drabkin's Assay for hemoglobin concentration (angiogenesis index). PBS was used as a negative control while breast cancer cells were used as a positive control and to initiate tumorigenesis. The tumor cells were MCF-7/DXR (human breast adenocarcinoma), and 1-2 million cells per CAM were used. […] By re-weighing the tubes with the tumor inside, the weight of the tumor itself could be recorded. […] Specimens were centrifuged, and the hemoglobin content was measured using Drabkin's reagent (Sigma, St Louis, Mo.), run in duplicate using the supernatant. […]

Mpanc96-luc cancer cells = assay: Liver metastasis and recurrence after excision of pancreatic cancer; format: in vivo; settings: experiment and dose not stated at the place
Source text: Different groups of mice received either saline (control), LMWH, SNACH or S-SNACH, followed by injection of luciferase transfected pancreatic cancer cells into the mouse spleen. The treatment continued daily for two weeks. IVIS imaging was done once a week to measure the metastatic load to various organs. The tumor burden measurements were based on the bioluminescence signal intensity of the pancreatic cancer cells. The second experiment was intended to study the effect of the compounds (LMWH, SNACH, and S-SNACH) on metastasis after tumor excision surgery. Pancreatic Mpanc96 cells were injected into the tail of the pancreas and one week later animals were randomized into different groups. One group received saline and another group received LMWH, SNACH, and S-SNACH at 30 minutes before resection of the pancreatic tumor, followed by daily treatment for 3 weeks. Tumor metastasis was evaluated by IVIS imagining. A bleeding time experiment was done to evaluate the relative effect on bleeding time. […] Tumor luminescent signal intensity, weight, and histopathology were assessed at the termination of the study.
Mice were randomly distributed into control and treatment groups, averaging 10 mice in each group. […] The spread of cancer cells was monitored using IVIS imaging once per week, and at the end of the 3 week treatment period the mice were euthanized.

human umbilical vein = assay: In vitro human vessel perfusion model; format: cell-based; settings: FIG. 3
Source text: Based on published data obtained on the tumor/vessel adherence characteristics in this model [Mousa S A., Comparative pharmacodynamic assessment of the antiangiogenesis activity of heparin and low-molecular-weight heparin fractions: structure function relationship, Clin Appl Thromb Hemost, 2013, 19(1):48-54], umbilical vein was utilized for all studies. Following informed consent, fresh umbilical cord was obtained, using a sterile technique, from the placenta following normal delivery […] from patients at local hospitals. Approximately 20 cm of the cord is excised, rinsed and wiped free of blood using cold 0.9% saline and sterile gauze. Then cold saline was used to flush the vein clean of blood. Two sections of umbilical cord (approximately 3 cm each) are cut longitudinally to expose the vein surface and are pinned to the silastic base of the chamber using 27 G×1 inch needles. […]
The vein segments were perfused for 24 hours with cancer cells in platelet-rich plasma (PRP) under venous flow conditions (70 ml/min). […] Blood gases of the perfusate were measured 15 minutes after the start and just prior to the end of the perfusion period to confirm that physiological conditions were maintained. […] Statistical significance was determined by using a paired t-test. […]

In the case of tinzaparin, the “tumor growth or tumor angiogenesis” value (MPanc96-luc cells) is reported as “maximally inhibited”, the “tumor recurrence after surgical excision” value (Mpanc96-luc cancer cells) is reported as “not” and the “pancreatic cancer cell adhesion” value (human umbilical vein) is reported as “comparable anti-adhesive potency”.
